In patent US20190160257A1, “METHODS AND SYSTEMS FOR INHIBITING VASCULAR INFLAMMATION” (Mercator MedSystems, Inc., priority 2002, published 2019):
“Also recorded” adds a separate entry of the source.

Tests used:
[1] = two injections of 0.5 mL 5% silver nitrate per iliac artery
Description: The animal was sacrificed according to approved protocol following the last injection. The arteries were removed and placed in 10% formalin without perfusion. 2 mm segments were embedded in paraffin, sectioned, and hematoxylin-eosin stained.

[2] = pig, in vivo
Description: Injections were made to depths in the range from 0.8 mm to 1.2 mm One artery was treated intraluminally with 5 mL OGP to determine background vascular uptake. Animals were sacrificed 0.5-23 hr post-procedure following IACUC-approved protocol. After sacrifice, the LAD, RCA and LCx were removed, cut into 4-5 mm sections, which were frozen and cryosectioned. The slides were counter-stained with 0.1% Evan's Blue in PBS (5 min 37 C) to quench autofluorescence, observed with a UV microscope, and scored 0-4+. Representative sections were photographed.

[3] = Distribution of tacrolimus after periadventitial injection in swine coronary arteries, LC/MS of tissue; format: in vivo
Description: Distribution of a lipophilic compound (tacrolimus): Eight swine underwent angiography. […] The two remaining arteries served as untreated controls. An untreated heart was used as a negative control. At 48 hours arteries were dissected from the musculature and perivascular fat, cut into 5 mm sections and analyzed by Liquid Chromatography/Mass Spectrometry against tacrolimus calibration standards containing homogenized untreated porcine heart tissue.

[4] = test system: graft-vein anastomosis and proximal vein of porcine AV grafts; conditions: pig, in vivo
Description: Fourteen days after graft implantation, percutaneous transluminal angioplasty (PTA) was performed (7 mm balloon, 16 atmosphere inflation pressure) at two sites per graft: across the graft-vein anastomosis (GVA) and in the proximal vein (PV). […] Infusions of 3 ml were always consistent between the 2 grafts in each animal.

[5] = test system: patients with superficial femoral or popliteal artery lesions; test: DANCE Trial: circulating hsCRP and MCP-1 after revascularization with adventitial and perivascular dexamethasone; format: in vivo, human; conditions: baseline and 24 hours, about 1.6 mg per cm of lesion
Description: An additional study has enrolled 140 patients in the United States, meeting similar enrollment criteria as those in the 20-patient study described above. In these patients, approximately one-third of them have had blood draws right before a revascularization procedure of their superficial femoral or popliteal artery, and then again at 24±4 hours after their revascularization procedure. Arterial lesions in this study were at least 70% occlusive prior to revascularization and up to 15 cm in length. Revascularization therapy was performed with angioplasty, atherectomy, provisional stenting, or a combination thereof. […] The Schillinger 2002 published research would indicate the likelihood for a substantial rise in the hsCRP after revascularization therapy, and that this rise is linked to the rate of restenosis at 6 months following the revascularization procedure. The data from Schillinger 2002 and the 20-patient study described above (the DANCE-Pilot, in which 15 patients had baseline and 24 hour hsCRP levels examined) are plotted in FIG. 15, along with 41 patients from the larger 139 patient group (the DANCE Trial).
Additional data coming out of the interim analysis of the DANCE study includes the first 9 patients to have MCP-1 analyzed from their circulating blood at baseline and at 24 hours. […]

[6] = test system: patients with atherosclerotic lower extremity occlusive disease of the superficial femoral or popliteal arteries
Description: Patients with TASC II A, B, and C disease of the superficial femoral and/or popliteal arteries were eligible for this study.
Unique identifier: NCT 01507558). The study design was a prospective, single-center, investigator-initiated study that enrolled consecutive patients who met eligibility requirements from the San Francisco Veteran Affairs Medical Center. This study was approved by the Committee for Human Research and the University of California Clinical and Translational Science Institute. Safety data and outcomes were monitored by a Data Safety and Monitoring Committee that convened on a quarterly basis or as needed.
The primary inclusion criteria were patients suffering from moderate to severe disabling claudication, ischemic rest pain, or minor tissue loss secondary to atherosclerotic lower extremity occlusive disease with TransAtlantic Inter-Society Consensus II […] lesions of the superficial femoral artery (SFA) or popliteal arteries.
The Bullfrog® Micro-Infusion is a rapid-exchange, wire-guided catheter with a balloon-sheathed 0.9-mm-long, 35-gauge (140 μm diameter) needle that delivers infusions to adventitial and perivascular tissues. It is Food and Drug Administration 510(k)-cleared for use in coronary and peripheral arteries. It is advanced through a 6F sheath over a 0.014-inch wire and can treat vessels from 3 to 6 mm in diameter. Three radio-opaque markers on the catheter allow for proper orientation of the needle. Using standard angioplasty inflation equipment, the balloon was inflated exposing the needle. When the balloon contacted the arterial wall opposite the needle tip, contact pressure forced the needle through the vessel wall and into the adventitia and perivascular tissues. The contact pressure of the balloon against the artery wall is limited to 2 atmospheres by a pressure release valve, which prevents damage to the artery wall. A mixture of infusate and contrast (4:1) was then delivered under fluoroscopic guidance into the adventitia. A test injection of 0.1 mL was made to confirm proper adventitial placement of the microinfusion needle tip. If resistance is met, or the test injection enters the blood stream, the balloon was deflated and the injection is attempted in another location by moving the catheter a few millimeters proximally or distally or rotating the catheter a few degrees. Once adventitia placement was confirmed, the remainder of the infusate was delivered at a rate of 1 mL/min. When the infusion was complete, the balloon was deflated, sheathing the needle, and allowing the catheter to be withdrawn. FIG. 12. Injections were administered approximately every 3 cm along the length of the treated arterial segment.
Patients not taking aspirin or clopidogrel before study enrollment received 325 mg of aspirin 12 hours prior the procedure. Postprocedure, patients were prescribed 81 mg/d of aspirin to be taken indefinitely and 75 mg/d of clopidogrel daily for 12 weeks. Vascular access was accomplished by either the contralateral or ipsilateral (anterograde) approach. Patients received a bolus of 5000 IU of heparin after insertion of the sheath in the common femoral artery, and their activated clotting time was kept above 250 seconds with additional heparin as needed. In the case of chronic total occlusions, all lesions were crossed subintimally with a glide wire and glide catheter (Terumo, Somerset, N.J.). After securing access across the lesion with a guidewire, the target lesion was treated according to physician preference. All patients were treated with balloon angioplasty.

With `O=[N+]([O-])[O-].[Ag+]` [Silver Nitrate] the “staining: site of delivery and diffusion” value [1] was “delivery outside the external elastic lamina of the vessels and diffusion around the circumference”.
In the case of Oregon Green® 488 paclitaxel [OGP], the circumferential staining [2] is reported as “staining was observed throughout the circumference of the artery”.
For `C=CC[C@@H]1/C=C(\C)C[C@H](C)C[C@H](OC)[C@H]2O[C@@](O)(C(=O)C(=O)N3CCCC[C@H]3C(=O)O[C@H](/C(C)=C/[C@@H]3CC[C@@H](O)[C@H](OC)C3)[C@H](C)[C@@H](O)CC1=O)[C@H](C)C[C@@H]2OC` [tacrolimus], the “segments in which drug was detected” value ([3]; 48 hours, including side branches and uninjected arteries) was 285/293 and the “subjects with distribution to the entire coronary tree” value ([3]; periadventitial delivery, higher concentrations at injection sites) was 8/8.
With `C[C@@H]1C[C@H]2[C@@H]3CCC4=CC(=O)C=C[C@]4(C)[C@@]3(F)[C@@H](O)C[C@]2(C)[C@@]1(O)C(=O)CO` [dexamethasone] the “adverse effect compared to placebo in the adventitia” value [4] was “no observable adverse effect”, the “effect on hsCRP inflammatory spike after revascularization” value ([5]; 41 patients, versus Schillinger 2002, FIG. 15) was “capable of reducing the inflammatory spike” and the “change in circulating MCP-1” value ([5]; first 9 patients, FIG. 16) was “marked drop in MCP-1; also recorded: a drop in MCP-1”. The “patients with target lesion restenosis” value ([6]; 6 month follow up, PSV ratio >2.4 or occlusion by ultrasound) was “two”, the “Rutherford classification scores versus pre-op baseline” value ([6]; 6 months, all patients but the one with target lesion restenosis) was “improved” and the “mean Rutherford score” value ([6]; 6 months, preoperative 3.1±0.71, P<0.00001) was 0.5±0.70. For the same compound, the “median Rutherford score” value ([6]; 6 months, preoperative median 3.0) was 0, the “mean ABI versus baseline” value ([6]; all time points post procedure, FIG. 14) was “significantly improved” and the “patients with only partial coverage by contrast distribution (grade=B)” value ([6]; assessed by fluoroscopy) was “one”. The “subjects with complete circumferential coverage of the lesion with the infusate (grade=A)” value ([6]; assessed by fluoroscopy immediately after the infusion) was 19 out of 20 subjects, the “patients with loss of primary patency (duplex ultrasound binary restenosis)” value ([6]; by 6 months, 20 patients) was “Two” and the “anticipated rise of hsCRP” value ([6]; compared with Schillinger 2002) was “appears to be dampened”. The “patients with target extremity stenosis not within the treated segment” value ([6]; follow up 381±181 days) was “Three”, the ABI measurements ([6]; one-year follow up, N=10, P<0.0001 vs baseline) was 1.04±0.21 and the PSVR ([6]; one-year follow up, patients without index lesion restenosis, N=8) was 1.1±0.6. For the same compound, the “CRP at 24 hours following the procedure” value ([6]; preoperative 6.9±8.5, P=0.14) was 14.0 ± 23.1 mg/L, the “increase of CRP at 24 hours” value ([6]; versus preoperative, not statistically significant (P=0.14)) was 103% and the “drug or device-related adverse events reported” value ([6]; within 30 days, acute hyperglycemia in one patient, controlled by insulin) was “one”.
